{"source": "ChEMBL document CHEMBL1157308", "about": "“Daphniyunnines A-E, alkaloids from Daphniphyllum yunnanense” (J Nat Prod, 2006)", "key": {"P388": {"system": "P388", "assay": "Cytotoxicity against mouse P388 cells", "format": "functional, cell-based"}, "A549": {"system": "A549", "assay": "Cytotoxicity against human A549 cells", "format": "functional, cell-based"}}}
{"smiles": "C[C@@H]1CN2C[C@H]3CCC4=C5[C@@](O)(CC[C@@]56C(=O)[C@@H]1C[C@@H]2[C@@]36C)CC4=O", "note": "[DAPHNIYUNNINE D]", "values": [{"measurement": "IC50", "setting": "P388", "value": 3000, "unit": "nM"}, {"measurement": "IC50", "setting": "A549", "value": 600, "unit": "nM"}]}
